The record followed here is patent publication US8524745B2 (Allergan, Inc., priority 2011, dated 2013).

For this assay, the target named is T1, CCR2 (Homo sapiens, UniProt P41597).
T1 construct: expressed in transfected cells
T1 sequence (P41597 whole entry, species assumed): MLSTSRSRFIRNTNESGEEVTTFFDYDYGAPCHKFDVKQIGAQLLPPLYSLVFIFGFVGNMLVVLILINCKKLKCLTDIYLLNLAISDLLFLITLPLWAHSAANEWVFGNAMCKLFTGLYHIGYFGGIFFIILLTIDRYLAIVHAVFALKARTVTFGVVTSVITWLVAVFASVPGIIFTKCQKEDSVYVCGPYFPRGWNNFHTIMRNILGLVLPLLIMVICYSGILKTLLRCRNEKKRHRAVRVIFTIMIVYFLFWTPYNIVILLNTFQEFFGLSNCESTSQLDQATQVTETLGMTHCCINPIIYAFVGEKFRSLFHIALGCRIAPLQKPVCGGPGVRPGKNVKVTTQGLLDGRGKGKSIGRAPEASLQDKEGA
Briefly: CCR2 calcium activity assay on FLIPR Tetra in HEK-Gqi5 cells stably expressing CCR2. The class given is cell-based.
Regarding `COc1cccc(NS(=O)(=O)c2ccc3c(c2)c(=O)sn3C)c1` [N-(3-methoxyphenyl)-1-methyl-3-oxo-1,3-dihydro-2,1-benzisothiazole-5-sulfonamide], the “CCR2 % ANTAG” value was 84% and the IC50 (in general, the concentration needed to halve the response being measured) turned out to be 2450 nM.

`CC(C)n1sc(=O)c2cc(S(=O)(=O)Nc3cccc4c3OC(F)(F)C(F)(F)O4)ccc21` [1-isopropyl-3-oxo-N-(2,2,3,3-tetrafluoro-2,3-dihydro-1,4-benzodioxin-5-yl)-1,3-dihydro-2,1-benzisothiazole-5-sulfonamide]: the “CCR2 % ANTAG” value is 68% and the IC50 stood at 559 nM.

`Cn1sc(=O)c2cc(S(=O)(=O)Nc3cccnc3NS(=O)(=O)c3cccs3)ccc21` [1-methyl-3-oxo-N-{2-[(2-thienylsulfonyl)amino]pyridin-3-yl}-1,3-dihydro-2,1-benzisothiazole-5-sulfonamide]: the “CCR2 % ANTAG” value was determined as 83% and the IC50 turned out to be 1910 nM.

Regarding `Cn1sc(=O)c2cc(S(=O)(=O)Nc3cc(Cl)ccc3NS(=O)(=O)c3cccc(Cl)c3)ccc21` [N-(5-chloro-2-{[(3-chlorophenyl)sulfonyl]amino}phenyl)-1-methyl-3-oxo-1,3-dihydro-2,1-benzisothiazole-5-sulfonamide], the “CCR2 % ANTAG” value was determined as 91% and the IC50 came to 493 nM.

Turning to `Cn1cnc(S(=O)(=O)Nc2ccccc2NS(=O)(=O)c2ccc3c(c2)c(=O)sn3C)c1` [1-methyl-N-(2-{[(1-methyl-1H-imidazol-4-yl)sulfonyl]amino}phenyl)-3-oxo-1,3-dihydro-2,1-benzisothiazole-5-sulfonamide], the “CCR2 % ANTAG” value is given as 99% and the IC50 was 963 nM.
